Four compounds from patent publication US11203773B2, “Designer ribosomes and methods of use thereof for incorporating non-standard amino acids into polypeptides” (Yale University, priority 2016, dated 2021) can be followed below.

The target in experiment [1] is T1, E. coli GluRS (Escherichia coli, UniProt P04805). In words: Adenylation of α- and β3-amino acids, pyrophosphate exchange assay.
Procedure: Adenylation of α- and β-Amino Acids Catalyzed by E. coli PheRS, GlyRS, MetRS, and GluRS. […] Briefly, assay mixtures (50 μL) assembled at 25° C. contained the requisite α- or β^3-amino acid substrate (between 5 μM and 5 mM) in 100 mM HEPES (pH 7.0) containing 100 mM KCl, 15 mM MgCl2, 2 mM ATP, 0.5 mM NaPPi, and 50 μCi [^32P]-NaPPi). Reactions were initiated upon addition of enzyme (10 nM MetRS, 10 nM PheRS, or 50 nM GlyRS; 100 nM GluRS for reactions with α-Glu or 1.13 μM GluRS for reactions with β^3-Glu), incubated for various times (10 sec to 10 min), and halted by adding a 5 μL reaction aliquot to 100 μL quenching solution (10% charcoal, 0.5% HCl). 50 μL of 200 mM NaPPi in 1.5 N HCl was then added to each quenched reaction to decrease nonspecific binding of pyrophosphate to the charcoal. Each quenched reaction was then filtered through Whatman filter paper (number 3), previously washed with washing solution (200 mM NaPPi in 1 N HCl) using a 96-well BIO-DOT® apparatus (BioRad). Each well of the apparatus was then washed four times with 200 μL aliquots of washing solution (by pipetting washing solution up and down at least 10 times per wash) to minimize nonspecific binding of pyrophosphate to charcoal. Each experimental well was paired with an analogous control well (no-enzyme control) that lacked enzyme; a single membrane contained time points for both α- and β^3-amino acid substrates and all no-enzyme controls. The membrane was allowed to dry and was protected with a sheet of Microseal B adhesive seals (Biorad) prior to exposure to a BAS Storage Phosphor screen. Screens were imaged on a Typhoon 9500FLA biomolecule imager and the signal intensity of each dot was quantified using ImageJ to determine the relative amount of [^32P]-ATP formed as a function of time (Ctime). Each raw value were corrected by subtracting the intensity of the dot corresponding to the appropriate no-enzyme control (Cblank) and the resulting corrected values of Ccorr (representing the relative amounts of ^32P-ATP formed) were plotted as a function of time to determine values of relative ^32P-ATP formed per minute. Those values were divided by the concentration of enzyme used, and the data was plotted as relative specific activity (^32P-ATP formed min^−1×μM^−1 enzyme) and fitted using Prism by performing nonlinear regression using the least squares method and Equation 1 to obtain RSA (relative specific activity) and KM values (Equation 1 and Table 2).
In Equation 1, v is the apparent relative specific activity (relative ^32P-ATP formed per minute) obtained at each substrate concentration divided by the enzyme concentration, RSA is the relative specific activity, S is the concentration of substrate, and KM is the Michaelis-Menten constant.
Experiment [2] concerns the target T1, E. coli GluRS. In words: Aminoacylation of 32P-tRNA with α- and β3-amino acids. In kind it is biochemical. The arrangement: made in house; host or cells: E. coli BL21(DE3).
For experiment [3], the target named is T1, E. coli GluRS. In words: Deacylation assay of [32P]-aminoacyl-tRNA. In kind it is biochemical. Also noted: made in house; host or cells: E. coli BL21(DE3).
Procedure: (§3) Deacylation assays. Large scale (200 μL) aminoacylation reactions were initiated using the conditions described above (iv). The reactions were allowed to proceed for 1 h at 37° C., after which each reaction mixture was phenol/chloroform extracted. In each case, the aminoacylated tRNA product was ethanol precipitated, and the buffer was exchanged using a micro Bio-Spin 6 column (BioRad) following the procedure specified by the manufacturer and 100 mM HEPES (pH 8.0) containing 100 mM KCl. The precise extent of aminoacylation was calculated using the procedure described above; the 2 μM concentration corresponds to total aminoacylated tRNA. Assays were performed at 25° C. in a 50 μL reaction with 2 μM [^32P]-aminoacyl-tRNA in 100 mM HEPES (pH 7.0) containing 100 mM KCl and 15 mM MgCl2.
Experiment [4] has as its target T2, E. coli TyrRS (Escherichia coli, UniProt P0AGJ9).
T2 construct: made in house; host or cells: E. coli BL21(DE3)
T2 sequence (P0AGJ9 1-424): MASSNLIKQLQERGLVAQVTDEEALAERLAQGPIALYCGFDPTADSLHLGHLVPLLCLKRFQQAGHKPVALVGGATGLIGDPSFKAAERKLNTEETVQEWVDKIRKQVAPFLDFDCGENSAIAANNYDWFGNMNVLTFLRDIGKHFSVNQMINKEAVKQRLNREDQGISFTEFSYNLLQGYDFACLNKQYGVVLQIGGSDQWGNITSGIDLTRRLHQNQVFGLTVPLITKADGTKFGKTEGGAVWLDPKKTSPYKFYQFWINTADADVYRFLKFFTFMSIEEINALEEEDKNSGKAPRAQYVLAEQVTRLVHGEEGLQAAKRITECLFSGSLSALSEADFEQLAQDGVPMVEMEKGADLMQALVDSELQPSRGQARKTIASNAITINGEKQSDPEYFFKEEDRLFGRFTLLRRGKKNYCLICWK
Briefly: Deacylation assay of [32P]-aminoacyl-tRNA. The experiment is classed as biochemical. Conditions: for krev (apparent rate of deacylation): deacylation of aminoacyl-tRNA, TyrRS 1 μM, 25° C.
Procedure: as §3

Experiment [5] addresses T2, E. coli TyrRS. In words: Aminoacylation of 32P-tRNA with α- and β3-amino acids. The experiment is classed as biochemical.
Experiment [6] has as its target T2, E. coli TyrRS. In words: Adenylation of α- and β-Tyr, coupled MESG/PNP pyrophosphate release assay. The experiment is classed as biochemical. The source says: ii. Adenylation of α- and β-Tyr catalyzed by E. coli TyrRS. These reactions were monitored spectrophotometrically in a coupled assay using inorganic pyrophosphatase, 2-amino-6-mercapto-7-methylpurine ribonucleoside (MESG), and purine nucleoside phosphorylase (PNP) to monitor the rate of pyrophosphate release, according to the manufacturer's instructions (Enzcheck Pyrophosphate assay kit, Thermo Fisher Scientific). The assay measures the increase in absorbance at 360 nm due to MESG phosphorolysis, and two molecules of MESG are consumed per pyrophosphate generated. This direct assay could be employed for TyrRS because the rate of ATP hydrolysis (in the absence of amino acid substrate) was insignificant, which was not the case for the other synthetases which therefore required the more laborious pyrophosphate exchange assay described above. […] For TyrRS, kcat is the turnover number (units of reciprocal time) since the change in absorbance can be directly correlated to concentration of pyrophosphate formed.

The test system of experiment [7] is DHFR position 128 translated in E. coli BL21 (DE3). Briefly: Spectral counting (LC-MS/MS of tryptic peptides) of β3-(p-Br)Phe and α-Phe incorporation into DHFR in vivo. In kind it is cell-based. Conditions: spectral counting. The source says: (§1) To evaluate the extent of in vivo β^3-amino acid incorporation, BL21 (DE3) cells were co-transformed via electroporation (vide infra) with two plasmids. […] The other plasmid encoded either the WT rrnb sequence (pLK35-rrnb), the 040329 mutant reported by Hecht (pLK35-040329.rrnb), or the P7A7 mutant (pLK35-P7A7.rrnb) identified during the puromycin sensitivity screen described above.
ii. β^3-amino acid incorporation. The subsequent protocol for in vivo β^3-amino acid incorporation employed minimal media and was adapted from procedures reported by Tirrell and Cropp (Liu, et al., Bioorg Med Chem Lett, 20:5613 (2010); Mandavi, et al., J Am Chem Soc, 135:2979 (2013)). Briefly, all 5 mL of the co-transformed cells prepared as described above were diluted into 100 mL of LB containing […] of kanamycin and […] of carbenicillin and grown to OD600=1.0, spun down, and then resuspended in 1/10th the original volume of 19/20 minimal media (10.5 g/L M9 salts, 0.1 mM CaCl2, 1 mM MgSO4, 1% glycerol, 100 μM of each amino acid (minus α-Phe), 25 mg/L thiamine, […] carbenicillin, 30 ng/mL kanamycin, 1 mM IPTG) supplemented with 1 mM of α-Phe or a β^3-Phe analog. Cells were grown overnight (18 h) at 37° C. while shaking (200 rpm). The cells were harvested by centrifugation (10 min at 4000×g) and resuspended in lysis buffer (50 mM NaH2PO4, 300 mM NaCl, 10 mM imidazole (pH 8.0)). Lysis was performed by sonication (Branson Sonifier 250) with 5 cycles of 20 s on, 20 s off. Lysed cells were then centrifuged for 20 min at 15000×g. The clarified cell lysate was incubated with Ni-NTA resin (Qiagen) for 1 h while gently rotating at 4° C. The Ni-NTA column was washed with lysis buffer prior to eluting proteins with elution buffer (50 mM NaH2PO4, 300 mM NaCl, 300 mM imidazole (pH 8.0)). Elutions were analyzed with SDS-PAGE to prepare material for in-gel trypsin digestions. Controls included side-by-side growths in (1) unsupplemented 19/20 minimal media, which contains only low levels of α-Phe present (negative control); (2). […]

Experiment [8] deals with BL21(DE3) cells expressing only WT ribosomes. In words: Expression of DHFR in 19/20 minimal media supplemented with amino acid (SDS-PAGE). The experiment is classed as cell-based, E. coli. Conditions: 19/20 minimal media supplemented with 1 mM of the amino acid.
Source text: as §1
(§2) ii. β^3-amino acid incorporation. The subsequent protocol for in vivo β^3-amino acid incorporation employed minimal media and was adapted from procedures reported by Tirrell and Cropp (Liu, et al., Bioorg Med Chem Lett, 20:5613 (2010); Mandavi, et al., J Am Chem Soc, 135:2979 (2013)). Briefly, all 5 mL of the co-transformed cells prepared as described above were diluted into 100 mL of LB containing 50 ng/mL of kanamycin and […] of carbenicillin and grown to OD600=1.0, spun down, and then resuspended in 1/10th the original volume of 19/20 minimal media (10.5 g/L M9 salts, 0.1 mM CaCl2, 1 mM MgSO4, 1% glycerol, 100 μM of each amino acid (minus α-Phe), 25 mg/L thiamine, […] carbenicillin, 30 ng/mL kanamycin, 1 mM IPTG) supplemented with 1 mM of α-Phe or a β^3-Phe analog. Cells were grown overnight (18 h) at 37° C. while shaking (200 rpm). The cells were harvested by centrifugation (10 min at 4000×g) and resuspended in lysis buffer (50 mM NaH2PO4, 300 mM NaCl, 10 mM imidazole (pH 8.0)). Lysis was performed by sonication (Branson Sonifier 250) with 5 cycles of 20 s on, 20 s off. Lysed cells were then centrifuged for 20 min at 15000×g. The clarified cell lysate was incubated with Ni-NTA resin (Qiagen) for 1 h while gently rotating at 4° C. The Ni-NTA column was washed with lysis buffer prior to eluting proteins with elution buffer (50 mM NaH2PO4, 300 mM NaCl, 300 mM imidazole (pH 8.0)). Elutions were analyzed with SDS-PAGE to prepare material for in-gel trypsin digestions. Controls included side-by-side growths in (1) unsupplemented 19/20 minimal media, which contains only low levels of α-Phe present (negative control); (2). 19/20 minimal media supplemented with 1 mM α-Phe (positive control) and (3) and 19/20 minimal media supplemented with 1 mM β^3-Gly (negative control; β^3-aa that is not a β^3-Phe analog).

Experiment [9] relates to BL21(DE3) cells expressing 040329 ribosomes along with WT ribosomes. The experiment is described as above. The experiment is classed as cell-based, E. coli. Conditions: 040329 + WT ribosomes, media supplemented with 1 mM of the amino acid.
Source text: as §1, §2

The subject of experiment [10] is BL21(DE3) cells expressing P7A7 ribosomes along with WT ribosomes. Described as above. In kind it is cell-based, E. coli. Conditions: media supplemented with 1 mM of the amino acid.
Source text: as §1, §2

T1 sequence (P04805 whole entry): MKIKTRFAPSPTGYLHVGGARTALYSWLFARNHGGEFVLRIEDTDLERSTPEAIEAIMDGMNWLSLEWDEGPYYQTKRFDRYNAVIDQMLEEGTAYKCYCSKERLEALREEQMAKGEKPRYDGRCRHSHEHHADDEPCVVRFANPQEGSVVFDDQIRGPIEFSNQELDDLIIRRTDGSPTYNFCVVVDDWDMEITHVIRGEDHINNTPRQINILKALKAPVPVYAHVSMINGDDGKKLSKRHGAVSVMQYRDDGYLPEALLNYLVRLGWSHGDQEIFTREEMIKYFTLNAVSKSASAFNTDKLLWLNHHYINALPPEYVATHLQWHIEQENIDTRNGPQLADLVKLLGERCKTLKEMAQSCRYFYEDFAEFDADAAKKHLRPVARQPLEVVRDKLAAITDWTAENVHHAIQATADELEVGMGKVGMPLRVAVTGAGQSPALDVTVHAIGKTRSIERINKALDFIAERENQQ

With `N[C@@H](CCC(=O)O)C(=O)O` [α-Glu, Glutamic Acid], in experiment [1], the “Ratio (α-/β-) of KM” value was 0.35 ± 0.27, the “Ratio (α-/β-) of RSA” value turned out to be 31.6 ± 6.4 and the “Ratio (α-/β-) of kcat/KM” value is 89.0 ± 70^. Moreover, in experiment [1] (RSA, 25° C., pH 7.0), the “kcat (min^−1) or RSA (^32P-ATP formed min^−1 enzyme μM^−1)” value was 1349 ± 206 ^32P-ATP formed min^−1 enzyme μM^−1. Moreover, in [2], the “Ratio (α/β) of KM” value is reported as 0.94 ± 0.60, the “Ratio (α/β) of kcat” value is listed as 61.2 ± 9.1 and the “Ratio (α/β) of kcat/KM” value is reported as 82.78 ± 68.2. In addition, the “krev (apparent rate of deacylation)” value in [3] (deacylation of aminoacyl-tRNA, GluRS 5.0 μM, 25° C.) was 0.32 ± 0.14 min⁻¹. Besides, the “Ratio (α/β) of krev” value in [3] (deacylation, GluRS) was found to be 0.73 ± 0.42.

For `N[C@@H](Cc1ccc(O)cc1)C(=O)O` [α-Tyr, Tyrosine], the “krev (apparent rate of deacylation)” value in experiment [4] was determined as 1.9 ± 1.3 min⁻¹. In addition, the “Ratio (α/β) of krev” value in [4] (deacylation, TyrRS) is recorded as 1.01 ± 0.75. In experiment [5], the “Ratio (α/β) of kcat” value turned out to be 56.3 ± 6.8 and the “Ratio (α/β) of kcat/KM” value stood at 1541.7 ± 724.3. Moreover, in [6], the “Ratio (α-/β-) of KM” value was 0.047 ± 0.03, the “Ratio (α-/β-) of kcat” value is listed as 46.2 ± 7.7 and the “Ratio (α-/β-) of kcat/KM” value was 972.6 ± 632.0.

With `NC(CC(=O)O)Cc1ccc(O)cc1` (stereo not drawn) [β-Tyr, β^3-tyrosine], the “krev (apparent rate of deacylation)” value in experiment [4] was found to be 1.9 ± 0.6 min⁻¹. Also, the Km in experiment [5] came out at 340 ± 80.3 µM; in [6], 450 µM. Moreover, the turnover number (kcat) in [5] (2 μM tRNA) stood at 0.0208 ± 0.012 s⁻¹. Besides, the “kcat (min^−1) or RSA (^32P-ATP formed min^−1 enzyme μM^−1)” value in [6] (kcat (turnover number)) stood at 0.027 ± 0.001 min⁻¹.

Turning to `NC(CC(=O)O)Cc1ccc(Br)cc1` (stereo not drawn) [β^3-(p-Br)Phe], the “lower incorporation of β^3-(p-Br)Phe relative to α-Phe” value in experiment [7] (cells expressing 040329 ribosomes) is reported as 30 fold; in experiment [7] (cells expressing P7A7 ribosomes), 10 fold. In [8], the “amount of DHFR generated” value is recorded as “trace amounts”. Moreover, the results for the “level of DHFR” value in [9] and in experiment [10] were “significant levels” and “highest levels”, respectively.
